Columns and labels:
Assay in all cases: relative viability (nuclei count vs DMSO), 5 days (fraction); higher = more cells survive
Bortezomib + Foretinib = compound: CC(C)C[C@H](NC(=O)[C@H](Cc1ccccc1)NC(=O)c1cnccn1)B(O)O [Bortezomib] + COc1cc2c(Oc3ccc(NC(=O)C4(C(=O)Nc5ccc(F)cc5)CC4)cc3F)ccnc2cc1OCCCN1CCOCC1 [Foretinib] (partner 0.25 µM)
Method in brief: (§1)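 Cells from lung cancer lines were seeded into 1536-well plates and, one day later, dosed by pin tool. Treatments were either a single drug or a fixed dose of an anchor drug with five library-drug doses (not always all listed) in √10 steps. After 5 days, nuclei were stained in a one-step fixation (final 0.05% Triton X-100, 1% formaldehyde, 1 ug/ml Hoechst) and counted on 4× images, and relative viability is the treated-to-vehicle nuclei ratio, as the median of duplicate plates.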

Bortezomib + Decitabine = compound: CC(C)C[C@H](NC(=O)[C@H](Cc1ccccc1)NC(=O)c1cnccn1)B(O)O [Bortezomib] + Nc1ncn([C@H]2C[C@H](O)[C@@H](CO)O2)c(=O)n1 [Decitabine] (partner 2 µM)
Method in brief: as §1

[1] = compound: CC1=CC(=NN1)NC2=CC(=NC(=N2)/C=C/C3=CC=CC=C3)N4CCN(CC4)C + CC1(C)CCC(c2ccc(Cl)cc2)=C(CN2CCN(c3ccc(C(=O)NS(=O)(=O)c4ccc(N[C@H](CCN5CCOCC5)CSc5ccccc5)c(S(=O)(=O)C(F)(F)F)c4)cc3)CC2)C1 [Navitoclax] (partner 0.5 µM)
Method in brief: as §1

Obatoclax + Navitoclax = compound: COC1=CC(c2cc3ccccc3[nH]2)=N/C1=C\c1[nH]c(C)cc1C [Obatoclax] + CC1(C)CCC(c2ccc(Cl)cc2)=C(CN2CCN(c3ccc(C(=O)NS(=O)(=O)c4ccc(N[C@H](CCN5CCOCC5)CSc5ccccc5)c(S(=O)(=O)C(F)(F)F)c4)cc3)CC2)C1 [Navitoclax] (partner 0.5 µM)
Method in brief: as §1

Row | Cell Line | relative viability (Bortezomib + Foretinib; first compound 0.0002 µM) | relative viability (Bortezomib + Foretinib; first compound 0.000632 µM) | relative viability (Bortezomib + Foretinib; first compound 0.002 µM) | relative viability (Bortezomib + Foretinib; first compound 0.006325 µM) | relative viability (Bortezomib + Foretinib; first compound 0.02 µM) | relative viability (Bortezomib + Decitabine; first compound 0.0002 µM) | relative viability (Bortezomib + Decitabine; first compound 0.000632 µM) | relative viability (Bortezomib + Decitabine; first compound 0.002 µM) | relative viability (Bortezomib + Decitabine; first compound 0.006325 µM) | relative viability (Bortezomib + Decitabine; first compound 0.02 µM) | relative viability ([1]; first compound 0.08 µM) | relative viability ([1]; first compound 0.253 µM) | relative viability ([1]; first compound 0.8 µM) | relative viability ([1]; first compound 2.53 µM) | relative viability ([1]; first compound 8 µM) | relative viability (Obatoclax + Navitoclax; first compound 0.01 µM) | relative viability (Obatoclax + Navitoclax; first compound 0.03162 µM) | relative viability (Obatoclax + Navitoclax; first compound 0.1 µM) | relative viability (Obatoclax + Navitoclax; first compound 0.3162 µM) | relative viability (Obatoclax + Navitoclax; first compound 1 µM)
1 | NCI-H2347 | 0.741 | 1.3 | 1.09 | 0.275 | 0.327 | 0.631 | 0.601 | 0.648 | 0.466 | 0.429 | 0.762 | 0.871 | 0.912 | 0.496 | 0.361 | 0.724 | 0.781 | 0.698 | 0.602 | 0.877
2 | NCI-H2405 | 1.02 | 1.05 | 0.86 | 0.271 | 0.188 | 0.716 | 0.692 | 0.545 | 0.212 | 0.181 | 0.884 | 0.688 | 1.13 | 0.511 | 0.0864 | 0.82 | 1.06 |  | 0.862 | 0.857
3 | NCI-H3122 | 0.889 | 0.882 | 0.994 | 0.693 | 0.0999 | 0.439 | 0.438 | 0.403 | 0.34 | 0.129 | 1 | 0.996 | 0.991 | 0.918 | 0.896 | 1.02 | 1.01 | 1.04 | 1.04 | 1.02
4 | PC-3 [JPC-3] | 1.04 | 1.05 | 0.346 | 0.163 | 0.121 | 0.815 | 0.84 | 0.428 | 0.301 | 0.237 | 0.769 | 0.81 | 0.762 | 0.62 | 0.389 | 0.853 | 0.682 | 0.801 | 0.796 | 0.668
5 | PC-14 | 1.04 | 1.03 | 1.02 | 0.588 | 0.159 | 0.254 | 0.234 | 0.195 | 0.0599 | 0.0702 | 0.974 | 1.01 | 0.928 | 0.324 | 0.0445 | 0.968 | 1.07 | 0.962 | 0.847 | 0.128
